What was measured:
Type in all cases: functional
Tetranychus cinnabarinus = assay: Insecticidal activity against Tetranychus cinnabarinus at 250 mg/L relative to control
Nilaparvata lugens = assay: Insecticidal activity against Nilaparvata lugens at 500 mg/L relative to control
Mythimna separata = assay: Insecticidal activity against Mythimna separata at 500 mg/L relative to control
Aphis = assay: Insecticidal activity against Aphis medicagini at 250 mg/L relative to control

Row | Compound | Activity (Tetranychus cinnabarinus) [%] | Activity (Nilaparvata lugens) [%] | Activity (Mythimna separata) [%] | Activity (Aphis) [%]
1 | CC1(C)CC(=O)c2cc(C(=O)NN(C(=O)c3ccccc3)C(C)(C)C)ccc2O1 | 0 | 0 | 80 | 8
2 | Cc1cccc(C(=O)NN(C(=O)c2coc3ccc(Cl)cc3c2=O)C(C)(C)C)c1 | 0 | 7.1 | 26.7 | 6
3 | CC1(C)CC(=O)c2cc(C(=O)NN(C(=O)c3ccc(Br)cc3)C(C)(C)C)ccc2O1 | 0 | 0 | 6.7 | 4
4 | Cc1ccccc1C(=O)N(NC(=O)c1ccc2c(c1)C(=O)CC(C)(C)O2)C(C)(C)C | 0 | 3.4 | 40 | 0
5 | CC1(C)CC(=O)c2cc(C(=O)NN(C(=O)c3ccc(F)cc3)C(C)(C)C)ccc2O1 | 0 | 0 | 0 | 4
6 | Cc1ccc2occ(C(=O)N(NC(=O)c3ccccc3)C(C)(C)C)c(=O)c2c1 | 51.7 | 0 | 60 | 0
7 | Cc1cc(C)cc(C(=O)N(NC(=O)c2ccc3c(c2)C(=O)CC(C)(C)O3)C(C)(C)C)c1 | 66.7 | 7.1 | 100 | 8
8 | CC1(C)CC(=O)c2cc(C(=O)NN(C(=O)c3ccccc3F)C(C)(C)C)ccc2O1 | 76.7 | 3.4 | 0 | 4
9 | Cc1ccc2occ(C(=O)N(NC(=O)c3cccc(Cl)c3)C(C)(C)C)c(=O)c2c1 | 0 | 3.4 | 26.7 | 0
10 | CC1(C)CC(=O)c2cc(C(=O)NN(C(=O)c3ccc(Cl)cc3)C(C)(C)C)ccc2O1 | 0 | 0 | 84.2 | 4.2
11 | CC1(C)CC(=O)c2cc(C(=O)NN(C(=O)c3cccc(Cl)c3)C(C)(C)C)ccc2O1 | 0 | 0 | 13.3 | 0
12 | CC(C)(C)N(NC(=O)c1ccccc1)C(=O)c1coc2ccccc2c1=O | 0 | 7.1 | 0 | 21.1
13 | CC(C)(C)N(NC(=O)c1cccc(Cl)c1)C(=O)c1coc2ccc(Cl)cc2c1=O | 0 | 0 | 73.3 | 16
14 | CC(C)(C)N(NC(=O)c1ccccc1)C(=O)c1coc2ccc(Cl)cc2c1=O | 0 | 18.2 | 58.3 | 0
15 | CC(C)(C)N(NC(=O)c1ccc(Cl)cc1)C(=O)c1coc2ccccc2c1=O | 0 | 0 | 66.7 | 2
16 | CC1(C)CC(=O)c2cc(C(=O)NN(C(=O)c3ccccc3Cl)C(C)(C)C)ccc2O1 | 58.3 | 0 | 66.7 | 8
17 | CC(C)(C)N(NC(=O)c1cccc(Cl)c1)C(=O)c1coc2ccccc2c1=O | 0 | 0 | 20 | 4

Reference: ChEMBL document CHEMBL1142909, “Synthesis and insecticidal activity of chromanone and chromone analogues of diacylhydrazines” (2007)
